According to patent US20130018023A1, “COMPOSITIONS FOR TOPICAL ADMINISTRATION” (SOL-GEL TECHNOLOGIES LTD., priority 2010, published 2013):

How the values were obtained:
VRE [1] = assay: MIC determination, macrodilution method; assay type: cell-based, Vancomycin-Restistant Enterococcus faecali (ATCC 115992)
Source text: (§1) Methicillin-resistant Staphylococcus aureus (ATCC 33592) Coagualse Negative Staphylococcus epidermidis (Clinical Isolate) Vancomycin-Restistant Enterococcus faecali (ATCC 115992) Escherischia coli (ATCC 25922) Candida albicans (ATCC 10231)
(§2) Muller Hinton Broth (MHB) was used in this study for all bacteria: BD Cat #211443, Lot numbers 9097650.
(§3) 1. The test organism, (bacteria or yeast) was obtained from frozen cultures. 2. Two days prior to the experiment, a portion of test bacterium from frozen culture collection was streaked and cultured on a non-selective agar plate (e.g. TSA). Plates were then incubated overnight at 37° C.±1° C. and the culture was examined for purity prior to use. […] 3. The day prior to the experiment, a portion of test organism was inoculated from the above-mentioned plate into MHB and vortexed. Incubate at 37° C.±1° C. for approximately eighteen hours. 4. For Candida albicans (ATCC 10231): The day prior to the experiment a portion of test organism was inoculated from the above-mentioned plate into Yeast/Dextrose Broth and vortexted. Bacterial MIC determination was conducted according to Kirby-Bauer macrodilution method. The bacterial/yeast density was adjusted to approximately 10^7 CFU/m; (Approx OD625 0.1±0.05). […]

MRSA [2] = assay: MIC determination, macrodilution method; assay type: cell-based, Methicillin-resistant Staphylococcus aureus (ATCC 33592)
Source text: as §1, §2, §3

Staph epidermidis [3] = assay: MIC determination, macrodilution method; assay type: cell-based
Source text: as §1, §2, §3

C. albicans (yeast) [4] = assay: MIC determination, macrodilution method; assay type: cell-based, Candida albicans (ATCC 10231)
Source text: as §1
(§4) Muller Hinton Agar (MHA) was used in this study for all bacteria: BD Cat #211438, Lot number 7155220. Yeast Dextrose Broth (Y/D B) was used to test C. albicans Yeast Dextrose Broth contains 10 g/L of yeast extract and 10 g/L of dextrose. Yeast Extract Cat #BD 210933, Lot number 8074851 (Expiration 2010-01-31). Dextrose Cat # BD215530 (Lot Number 6163169). Yeast Dextrose Agar (Y/D A) was used to test C. albicans Yeast Dextrose Agar contains 10 g/L of yeast extract and 10 g/L of dextrose and 17 g/L Agar. Agar Cat # BD 214010 (Lot Number 214010).
1. The test organism, (bacteria or yeast) was obtained from frozen cultures. 2. Two days prior to the experiment, a portion of test bacterium from frozen culture collection was streaked and cultured on a non-selective agar plate (e.g. TSA). Plates were then incubated overnight at 37° C.±1° C. and the culture was examined for purity prior to use. […] 3. The day prior to the experiment, a portion of test organism was inoculated from the above-mentioned plate into MHB and vortexed. Incubate at 37° C.±1° C. for approximately eighteen hours. 4. For Candida albicans (ATCC 10231): The day prior to the experiment a portion of test organism was inoculated from the above-mentioned plate into Yeast/Dextrose Broth and vortexted. Bacterial MIC determination was conducted according to Kirby-Bauer macrodilution method. The bacterial/yeast density was adjusted to approximately 10^7 CFU/m; (Approx OD625 0.1±0.05). Stock solutions of each test article or combination were made by adding each test article to MHB to give an MHB/test article mixture of the following concentrations: Benzoyl Peroxide=6% in MHB and Mupiocin=256 μg/mL in MHB.
For bacterial: Mupirocin=256 μg/mL & BP at 0.0469% in MHB For yeast: Mupirocin=256 μg/mL & BP at 0.0115% in MHB […]

C. albicans (yeast) [5] = assay: MBC & MFC determination, sub-culturing from MIC tubes; assay type: cell-based, Candida albicans (ATCC 10231); conditions: Candida albicans, value as mupirocin concentration
Source text: as §1, §4
(§5) 1. The test organism, (bacteria or yeast) was obtained from frozen cultures. 2. Two days prior to the experiment, a portion of test bacterium from frozen culture collection was streaked and cultured on a non-selective agar plate (e.g. TSA). Plates were then incubated overnight at 37° C.±1° C. and the culture was examined for purity prior to use. […] 3. The day prior to the experiment, a portion of test organism was inoculated from the above-mentioned plate into MHB and vortexed. Incubate at 37° C.±1° C. for approximately eighteen hours. 4. […]

E. Coli [6] = assay: MBC determination, sub-culturing from MIC tubes; assay type: cell-based, Escherischia coli (ATCC 25922); conditions: Escherichia coli, value as mupirocin concentration, read-out: Mupirocin MBC & MFC
Source text: as §1, §4, §5

MRSA [7] = assay: MBC determination, sub-culturing from MIC tubes; assay type: cell-based, Methicillin-resistant Staphylococcus aureus (ATCC 33592); conditions: Staphylococcus aureus, mupirocin alone, read-out: Mupirocin MBC & MFC
Source text: as §1, §4, §5

VRE [8] = assay: MBC determination, sub-culturing from MIC tubes; assay type: cell-based, Vancomycin-Restistant Enterococcus faecali (ATCC 115992); conditions: Enterococcus, value as mupirocin concentration, read-out: Mupirocin MBC & MFC
Source text: as §1, §4, §5

Staph epidermidis [9] = assay: MBC determination, sub-culturing from MIC tubes; assay type: cell-based; conditions: Staphylococcus epidermidis, mupirocin alone, read-out: Mupirocin MBC & MFC
Source text: as §1, §4, §5

E. Coli [10] = assay: MIC determination, macrodilution method; assay type: cell-based, Escherischia coli (ATCC 25922); conditions: Escherichia coli, MHB, approx. 24 h at 37° C., value as mupirocin concentration, combination starts at BP 0.0469%
Source text: as §1, §2, §3

Staph organisms = assay: Cidal activity (MBC) against Staph organisms; assay type: cell-based, Staphylococcus
Method: Bacterial MBC determination was conducted according to Kirby-Bauer macro-dilution method. […] The tubes were incubated for approximately 24 h at 37° C.±1° C. and then scored for their MBC.

SMILES: O=C(OOC(=O)c1ccccc1)c1ccccc1 [BPO, Benzoyl peroxide]
- BPO in DMSO MIC (VRE [1]; BPO alone dissolved in DMSO): 0.1875% (0.78%)
- BPO in DMSO MIC (MRSA [2]; BPO alone dissolved in DMSO): 0.1875% (0.78%)
- BPO in DMSO MIC (Staph epidermidis [3]; BPO alone dissolved in DMSO): 0.1875% (0.78%)
- BPO in DMSO MIC (C. albicans (yeast) [4]; C. albicans, BPO alone dissolved in DMSO): 0.046% (0.19%)

SMILES: C/C(=C\C(=O)OCCCCCCCCC(=O)O)C[C@@H]1OC[C@H](C[C@@H]2O[C@H]2[C@@H](C)[C@H](C)O)[C@@H](O)[C@H]1O [Mupirocin]
- MIC (VRE [1]; Enterococcus, MHB, approx. 24 h at 37° C., value as mupirocin concentration, combination starts at BP 0.0469%): 64 µg/mL
- MIC (MRSA [2]; Staphylococcus aureus, MHB, approx. 24 h at 37° C., value as mupirocin concentration, combination starts at BP 0.0469%): 1 µg/mL
- MBC (C. albicans (yeast) [5]): > 256 µg/mL
- MBC (E. Coli [6]): > 256 µg/mL
- MBC (MRSA [7]): 32 µg/mL
- MBC (VRE [8]): > 256 µg/mL
- MIC (Staph epidermidis [3]; Staphylococcus epidermidis, MHB, approx. 24 h at 37° C., value as mupirocin concentration, combination starts at BP 0.0469%): 1 µg/mL
- MBC (Staph epidermidis [9]): 32 µg/mL
- MIC (C. albicans (yeast) [4]; Candida albicans, C. albicans, approx. 24 h at 37° C., value as mupirocin concentration, combination starts at BP 0.0115%): > 256 µg/mL
- Efficacy against the yeast C. albicans (in words) (C. albicans (yeast) [4]; at the concentrations tested): ineffective
- MIC (E. Coli [10]): 64 µg/mL
- Cidal activity against Staph organisms (in words) (Staph organisms): Cidal activity
